Target: T1, BRD9 (Homo sapiens, UniProt Q9H8M2)
T1 sequence (Q9H8M2 1-597): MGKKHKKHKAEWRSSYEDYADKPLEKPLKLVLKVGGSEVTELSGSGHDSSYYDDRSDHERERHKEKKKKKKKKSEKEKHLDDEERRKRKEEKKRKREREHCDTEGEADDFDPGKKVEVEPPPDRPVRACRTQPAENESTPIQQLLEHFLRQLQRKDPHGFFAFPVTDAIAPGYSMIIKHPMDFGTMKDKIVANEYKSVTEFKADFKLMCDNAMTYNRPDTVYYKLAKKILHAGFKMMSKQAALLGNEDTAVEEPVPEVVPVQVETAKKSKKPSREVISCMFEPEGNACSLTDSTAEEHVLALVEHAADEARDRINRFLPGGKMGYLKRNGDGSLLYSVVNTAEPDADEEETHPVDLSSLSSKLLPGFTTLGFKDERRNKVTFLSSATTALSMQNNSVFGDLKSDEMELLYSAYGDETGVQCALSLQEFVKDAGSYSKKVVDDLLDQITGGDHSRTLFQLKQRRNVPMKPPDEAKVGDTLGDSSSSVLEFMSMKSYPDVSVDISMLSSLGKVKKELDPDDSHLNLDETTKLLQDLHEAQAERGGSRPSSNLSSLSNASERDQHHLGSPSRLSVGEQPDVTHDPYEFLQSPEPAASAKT
Experiment: Degradation of BRD9 (IF), immunofluorescence in MV4-11 cells, 24 hours (Assay Protocol 2)
Type: cell-based
Set-up: A suspension of MV4-11 cells (ATCC CRL-9591) was prepared; host or cells: MV4-11
Conditions: BRD9 degradation; for DC50: Assay protocol 2, read-out: DC50; for Dmax: MV4-11, Assay protocol 2, read-out: Dmax
Outline: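 MV4-11 cells treated with compound 24 h at 37° C., then fixed, permeabilised and immunostained for BRD9 (anti-BRD9 E4Q3F, Alexa 647 secondary, Hoechst counterstain). High-content imaging quantified nuclear BRD9 signal; % BRD9 remaining normalised to DMSO and 100 nM CFT-8634 controls.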

Structure (SMILES)	DC50 [µM]	Dmax [%]
COc1cc(-c2cn(C)c(=O)c(C)c2C)cc(OC)c1CN1CC[C@H](Oc2cccc3c2CCN(C(=O)/C(C#N)=C/C(C)(C)C)C3C)C1 (mixture of isomers) [Compound B133, (E/Z)-2-(5-(((R)-1-(2,6-dimethoxy-4-(1,4,5-trimethyl-6-oxo-1,6-dihydropyridin-3-yl)benzyl)pyrrolidin-3-yl)oxy)-1-methyl-1,2,3,4-tetrahydroisoquinoline-2-carbonyl)-4,4-dimethylpent-2-enenitrile]	0.01 to 0.025	40 to 70
COc1cc(-c2cn(C)c(=O)c(C)c2C)cc(OC)c1CN1CCN(Cc2cccc3c2CCN(C(=O)/C(C#N)=C/C2CCOCC2)C3C)C2(CC2)C1 (mixture of isomers) [Compound B137, (E/Z)-2-(5-((7-(2,6-dimethoxy-4-(1,4,5-trimethyl-6-oxo-1,6-dihydropyridin-3-yl)benzyl)-4,7-diazaspiro[2.5]octan-4-yl)methyl)-1-methyl-1,2,3,4-tetrahydroisoquinoline-2-carbonyl)-3-(tetrahydro-2H-pyran-4-yl)acrylonitrile]	0.00125 to 0.01	> 75
COc1cc(-c2cn(C)c(=O)c(C)c2C)cc(OC)c1CN1CCN(Cc2cccc3c2CCN(C(=O)/C(C#N)=C/C(C)(C)C(F)F)C3C)C2(CC2)C1 (mixture of isomers) [Compound B138, (E/Z)-2-(5-((7-(2,6-dimethoxy-4-(1,4,5-trimethyl-6-oxo-1,6-dihydropyridin-3-yl)benzyl)-4,7-diazaspiro[2.5]octan-4-yl)methyl)-1-methyl-1,2,3,4-tetrahydroisoquinoline-2-carbonyl)-5,5-difluoro-4,4-dimethylpent-2-enenitrile]	< 0.00125	> 75
COc1cc(-c2cn(C)c(=O)c(C)c2C)cc(OC)c1CN1CCN(Cc2cccc3c2CCN(C(=O)/C(C#N)=C/C(C)(C)F)C3C)C2(CC2)C1 (mixture of isomers) [Compound B140, (E/Z)-2-[5-[[7-[[2,6-dimethoxy-4-(1,4,5-trimethyl-6-oxo-3-pyridyl)phenyl]methyl]-4,7-diazaspiro[2.5]octan-4-yl]methyl]-1-methyl-3,4-dihydro-1H-isoquinoline-2-carbonyl]-4-fluoro-4-methyl-pent-2-enenitrile]	< 0.00125	> 75

Second part, the compound after the results:

DC50 [µM]	Dmax [%]	Structure (SMILES)
0.00125 to 0.01	> 75	CC[C@H]1CN(Cc2cccc3c2CCN(C(=O)/C(C#N)=C/C(C)(C)C)C3C)CCN1Cc1c(OC)cc(-c2cn(C)c(=O)c(C)c2C)cc1OC (mixture of isomers) [Compound B135, (E/Z)-2-(5-(((S)-4-(2,6-dimethoxy-4-(1,4,5-trimethyl-6-oxo-1,6-dihydropyridin-3-yl)benzyl)-3-ethylpiperazin-1-yl)methyl)-1-methyl-1,2,3,4-tetrahydroisoquinoline-2-carbonyl)-4,4-dimethylpent-2-enenitrile]
0.00125 to 0.01	> 75	COc1cc(-c2cn(C)c(=O)c(C)c2C)cc(OC)c1CN1CCN(Cc2cccc3c2CCN(C(=O)/C(C#N)=C/C(C)(C)C)C3C)C(C(C)C)C1 (mixture of isomers) [Compound B136, (E/Z)-2-(5-((4-(2,6-dimethoxy-4-(1,4,5-trimethyl-6-oxo-1,6-dihydropyridin-3-yl)benzyl)-2-isopropylpiperazin-1-yl)methyl)-1-methyl-1,2,3,4-tetrahydroisoquinoline-2-carbonyl)-4,4-dimethylpent-2-enenitrile]
0.01 to 0.025	70 to 75	CC[C@@H]1CN(Cc2c(OC)cc(-c3cn(C)c(=O)c(C)c3C)cc2OC)CCN1Cc1cccc2c1CCN(C(=O)/C(C#N)=C/C(C)(C)C)C2C (mixture of isomers) [Compound B139, (E/Z)-2-(5-(((R)-4-(2,6-dimethoxy-4-(1,4,5-trimethyl-6-oxo-1,6-dihydropyridin-3-yl)benzyl)-2-ethylpiperazin-1-yl)methyl)-1-methyl-1,2,3,4-tetrahydroisoquinoline-2-carbonyl)-4,4-dimethylpent-2-enenitrile]

From US20260092061A1, “COMPOUNDS FOR TARGETED PROTEIN DEGRADATION” (Amphista Therapeutics Limited, priority 2022, published 2026)
